The results in this text go back to patent US8232406B2, “c-MET protein kinase inhibitors” (Vertex Pharmaceuticals Incorporated, priority 2006, dated 2012).

SMILES strings stand for the structures.

Chain of c-MET (P08581 25-1390): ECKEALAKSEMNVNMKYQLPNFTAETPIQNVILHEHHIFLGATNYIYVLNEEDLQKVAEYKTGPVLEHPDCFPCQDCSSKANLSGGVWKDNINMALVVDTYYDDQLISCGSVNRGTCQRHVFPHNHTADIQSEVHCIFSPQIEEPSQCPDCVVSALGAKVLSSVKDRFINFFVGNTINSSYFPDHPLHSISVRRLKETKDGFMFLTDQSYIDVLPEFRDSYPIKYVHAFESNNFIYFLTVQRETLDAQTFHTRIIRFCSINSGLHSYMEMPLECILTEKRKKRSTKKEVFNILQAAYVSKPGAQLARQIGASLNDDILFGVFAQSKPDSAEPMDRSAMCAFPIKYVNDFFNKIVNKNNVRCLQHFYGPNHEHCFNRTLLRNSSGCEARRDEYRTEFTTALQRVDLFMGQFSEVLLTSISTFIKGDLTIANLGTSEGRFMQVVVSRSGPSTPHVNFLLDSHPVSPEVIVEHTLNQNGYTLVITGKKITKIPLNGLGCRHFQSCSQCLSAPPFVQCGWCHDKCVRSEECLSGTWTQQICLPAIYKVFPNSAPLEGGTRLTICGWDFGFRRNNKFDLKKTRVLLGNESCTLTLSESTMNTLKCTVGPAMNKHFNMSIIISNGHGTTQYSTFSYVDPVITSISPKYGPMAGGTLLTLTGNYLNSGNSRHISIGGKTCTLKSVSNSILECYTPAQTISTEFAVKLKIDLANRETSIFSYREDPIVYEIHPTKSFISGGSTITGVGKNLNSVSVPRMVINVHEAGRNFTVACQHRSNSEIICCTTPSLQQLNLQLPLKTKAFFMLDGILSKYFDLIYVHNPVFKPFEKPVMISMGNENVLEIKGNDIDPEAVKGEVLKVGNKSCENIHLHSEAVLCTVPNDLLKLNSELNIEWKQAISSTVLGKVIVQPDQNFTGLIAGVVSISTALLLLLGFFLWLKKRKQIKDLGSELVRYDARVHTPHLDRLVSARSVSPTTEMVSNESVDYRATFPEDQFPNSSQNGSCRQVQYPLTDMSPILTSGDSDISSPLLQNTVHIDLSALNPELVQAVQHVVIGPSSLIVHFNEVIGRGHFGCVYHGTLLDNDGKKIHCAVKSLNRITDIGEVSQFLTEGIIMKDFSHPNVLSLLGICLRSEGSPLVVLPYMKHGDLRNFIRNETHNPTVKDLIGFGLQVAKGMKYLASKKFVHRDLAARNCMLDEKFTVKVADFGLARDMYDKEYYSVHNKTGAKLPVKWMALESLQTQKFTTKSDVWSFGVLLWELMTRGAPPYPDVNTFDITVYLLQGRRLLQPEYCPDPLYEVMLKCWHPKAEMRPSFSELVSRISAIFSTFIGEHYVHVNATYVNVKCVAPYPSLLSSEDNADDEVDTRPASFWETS

The test deals with c-MET (Homo sapiens, UniProt P08581). In words: Ki determination for the inhibition of c-MET (standard radiometric 33P-ATP kinase assay, polyE4Y substrate). As to conditions: 1.0 nM c-Met, 35 μM ATP, 0.5 mg/mL polyE4Y, 20 min; competitive tight-binding fit. In kind it is biochemical. In a few lines:
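Ki obtained by fitting data to competitive tight-binding inhibition kinetics. c-Met at 1.0 nM phosphorylated polyE4Y (0.5 mg/mL) with 35 μM 33P-ATP for 20 min in pH 7.5 HEPES buffer with MgCl2, NaCl, BSA and DTT. Incorporated label measured by scintillation after TCA precipitation on filters.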
The molecule `CCNC(=O)Nc1nc2cc(F)c(-c3cnc(N)c(-c4nncn4-c4cccc(F)c4F)n3)cc2[nH]1` [I-A-57] returned a Ki of no more than 100 nM. For `Nc1ncc(-c2cnn(C3CNC3)c2)cc1-c1nnnn1-c1cccc(F)c1F` [I-A-426] the value was no more than 100 nM; for `CN(C)Cc1ccc(-c2cnc(N)c(-c3nnnn3-c3cc(F)ccc3F)c2)cc1` [I-A-580], 100 to 1000 nM. In turn, `Nc1ncc(-c2cnn([C@H]3CCCNC3)c2)nc1-c1nnnn1-c1cccc(Cl)c1F` [I-A-658] showed a Ki of no more than 100 nM. In turn, `Nc1ncc(-c2ccc(NC(=O)c3cccs3)cc2)cc1-c1nnnn1-c1cccc(F)c1F` [I-A-161] registered a Ki of 100 to 1000 nM.

As to `CN1CCN(c2ccc(-c3cnc(N)c(-c4nnc(O)n4-c4cccc(F)c4F)n3)cc2)CC1` [I-A-17], the Ki was in the range of 100 to 1000 nM. `COC(=O)[C@H](CC(C)C)NC(=O)Nc1ccc(-c2cnc(N)c(-c3nnnn3-c3cccc(F)c3F)c2)cc1` [I-A-330] registered a Ki of 100 to 1000 nM. As for `CC(=O)N1CCC(n2cc(-c3cnc(N)c(-c4nnnn4-c4cccc(F)c4Cl)c3)cn2)CC1` [I-A-392], the Ki was in the range of 100 to 1000 nM. `Nc1ncc(-c2ccc(CCN3CCCC3)cc2)cc1-c1nnnn1-c1cccc(F)c1F` [I-A-181] showed a Ki of no more than 100 nM. The figure for `Nc1ncc(-c2cnn(CCN3CCCC3)c2)cc1-c1nnnn1-c1cccc(F)c1F` [I-A-407] is no more than 100 nM.

The molecule `COc1ccc(-c2cnc(N)c(-c3nnnn3-c3cccc(F)c3F)c2)cc1OC` [I-A-309] showed an inhibition constant (Ki) of no more than 100 nM. Regarding `Nc1ncc(-c2ccccc2)cc1-c1nncn1-c1cccc(Cl)c1Cl` [I-A-74], the inhibitory constant (Ki) is 100 to 1000 nM. In turn, `CS(=O)(=O)Nc1cccc(-c2cnc(N)c(-c3nnnn3-c3cccc(F)c3F)c2)c1` [I-A-254] came in with a Ki of no more than 100 nM. `Nc1ncc(-c2ccc(NC(=O)N3CCCC3)cc2)cc1-c1nnnn1-c1cccc(F)c1F` [I-A-276]: the Ki is no more than 100 nM. The figure for `Nc1ncc(-c2cnn([C@@H]3CCCNC3)c2)cc1-c1nnnn1-c1cccc(Cl)c1Cl` [I-A-418] is no more than 100 nM; for `Nc1ncc(-c2cccnc2)cc1-c1nccn1-c1cccc(Cl)c1Cl` [I-A-65] it is no more than 100 nM; for `CC(=O)N1CCC(n2cc(-c3cnc(N)c(-c4nnc(C)n4-c4cccc(Cl)c4F)c3)cn2)CC1` [I-A-457] it is no more than 100 nM. `CN1CCOc2cc(-c3cnc(N)c(-c4nnnn4-c4cccc(F)c4F)c3)ccc21` [I-A-289] yielded a Ki of 100 to 1000 nM. The figure for `Nc1ncc(-c2ccccc2F)cc1-c1nnnn1-c1cccc(F)c1F` [I-A-313] is no more than 100 nM.

Molecule `CN(C)CCn1cc(-c2cnc(N)c(-c3nnnn3-c3cccc(F)c3F)c2)cn1` [I-A-406] registered an inhibitory constant (Ki) of no more than 100 nM. With `CC(C)CC(=O)N1CC=C(c2cnc(N)c(-c3nnnn3-c3cccc(F)c3F)c2)CC1` [I-A-513], the Ki is no more than 100 nM. In turn, `COC(=O)C(c1ccc(-c2cnc(N)c(-c3nnnn3-c3cccc(F)c3F)c2)cc1)N1CCCC1` (stereo not shown) [I-A-208] displayed a Ki of no more than 100 nM.

On to `Nc1ncc(C2=CCN(C(=O)C3CCOC3)CC2)cc1-c1nnnn1-c1cccc(F)c1F` (stereo not shown) [I-A-422], for which the Ki was no more than 100 nM. With `Nc1ncc(-c2cnn(CCN3CCCC3)c2)cc1-c1nnnn1-c1cccc(Cl)c1Cl` [I-A-411], the inhibition constant (Ki) is no more than 100 nM.

With `CN(CCc1ccccn1)Cc1ccc(-c2cnc(N)c(-c3nnnn3-c3cccc(Cl)c3Cl)c2)cc1` [I-A-102], the Ki is 100 to 1000 nM. The molecule `CCN(C)Cc1ccc(-c2cnc(N)c(-c3nnnn3-c3cccc(F)c3F)c2)cc1` [I-A-149] returned a Ki of no more than 100 nM. The molecule `Nc1ncc(-c2cnn(C3CCCCC3)c2)cc1-c1nnnn1-c1cccc(F)c1F` [I-A-403] gave an inhibition constant (Ki) of no more than 100 nM. `Nc1ncc(-c2cnn([C@H]3CCCNC3)c2)cc1-c1nnnn1-c1cccc(F)c1F` [I-A-405] gave a Ki of no more than 100 nM. For `Nc1ncc(-c2ccc(N3CCNCC3)cc2)cc1-c1nc2cc(F)ccc2n1-c1cccc(Cl)c1F` [I-D-20] the value was 100 to 1000 nM; for `Nc1ncc(-c2cccnc2)cc1-c1nnnn1-c1c(Cl)cccc1Cl` [I-A-609], 100 to 1000 nM; for `Nc1ncc(-c2cc3c(s2)CNCC3)cc1-c1nnnn1-c1cccc(F)c1F` [I-A-492, 3-(1-(2,3-Difluorophenyl)-1H-tetrazol-5-yl)-5-(4,5,6,7-tetrahydrothieno[2,3-c]pyridin-2-yl)pyridin-2-amine], no more than 100 nM.

As for `Nc1ncc(C2=CCC(N)CC2)cc1-c1nnnn1-c1cccc(F)c1F` (stereo not shown) [I-A-158], the Ki is no more than 100 nM.

As to `CCNC(=O)Nc1nc2cc(F)c(-c3cnc(N)c(-c4nnnn4-c4cccc(F)c4F)n3)cc2[nH]1` [I-A-53], the Ki was in the range of 100 to 1000 nM. As to `Nc1ncc(-c2ccn(C3CCNCC3)c2)cc1-c1nnnn1-c1cccc(F)c1F` [I-A-464], the Ki was no more than 100 nM. The figure for `Nc1ncc(-c2nc3c(s2)CNCC3)cc1-c1nnnn1-c1cccc(Cl)c1F` [I-A-533] is 100 to 1000 nM; for `Nc1ncc(-c2ccc(CN3CCCC3)cc2)cc1-c1nnnn1-c1cc(Cl)cc(Cl)c1` [I-A-597] it is 100 to 1000 nM. Consider `Nc1ncc(-c2ccsc2)cc1-c1nnnn1-c1cccc(F)c1F` [I-A-143], for which the Ki is no more than 100 nM. As to `Nc1ccc(-c2cnc(N)c(-c3nnnn3-c3cccc(F)c3F)c2)cc1N` [I-A-298], the Ki is no more than 100 nM. Turning to `Nc1ncc(-c2cccc(NC(=O)NC3CCCC3)c2)cc1-c1nnnn1-c1cccc(F)c1F` [I-A-329], the Ki is no more than 100 nM. In turn, `COC(=O)Nc1ccc(-c2cnc(N)c(-c3nnnn3-c3cccc(F)c3F)c2)cc1` [I-A-352] displayed a Ki of 100 to 1000 nM. The figure for `N#Cc1cccc(-c2cnc(N)c(-c3nncn3-c3cccc(F)c3F)n2)c1` [I-A-30] is 100 to 1000 nM; for `Nc1ncc(-c2cnn(C3CCN(C(=O)CO)CC3)c2)cc1-c1nnnn1-c1cccc(Cl)c1F` [I-A-447] it is no more than 100 nM; for `N#Cc1ccc(-c2cnc(N)c(-c3nnnn3-c3cccc(F)c3F)c2)cc1` [I-A-229] it is 100 to 1000 nM. `Nc1ncc(-c2ccc(OCCO)cc2)cc1-c1nnnn1-c1cccc(F)c1F` [I-A-283] showed an inhibition constant Ki of no more than 100 nM. The molecule `Nc1ncc(-c2cccc(C(F)(F)F)c2)cc1-c1nnnn1-c1cccc(F)c1F` [I-A-215] came in with an inhibition constant (Ki) of 100 to 1000 nM. Molecule `Nc1ncc(-c2cnn(CC(O)CO)c2)cc1-c1nnnn1-c1cccc(F)c1F` (stereo not shown) [I-A-368] gave a Ki of no more than 100 nM. Take `CC(=O)Nc1ccc(-c2cnc(N)c(-c3nnnn3-c3c(F)cccc3Cl)c2)cc1` [I-A-639]: the Ki lay in the range of 100 to 1000 nM. For `Nc1ncc(-c2cnn(C3CCNCC3)c2)cc1-c1nnnn1-c1cc(F)cc(F)c1` [I-A-627] the value was 100 to 1000 nM; for `CCOc1cccc(-c2cnc(N)c(-c3nnnn3-c3cccc(F)c3F)c2)c1` [I-A-315], 100 to 1000 nM; for `N#Cc1ccc(-c2cnc(N)c(-c3nnnn3-c3cccc(Cl)c3Cl)c2)cc1` [I-A-89], 100 to 1000 nM. The figure for `Nc1ncc(-c2ccc(CN3CCC(O)CC3)cc2)cc1-c1nnnn1-c1cccc(Cl)c1Cl` [I-A-97] is no more than 100 nM; for `Nc1ncc(-c2ccc(CN3CCC[C@H]3CO)cc2)cc1-c1nnnn1-c1cccc(F)c1F` [I-A-133] it is no more than 100 nM; for `Nc1ncc(-c2ccc(NC(=O)c3ccco3)cc2)cc1-c1nnnn1-c1cccc(F)c1F` [I-A-162] it is 100 to 1000 nM.

`Nc1nc2cc(F)c(-c3cnc(N)c(-c4nnnn4-c4cccc(F)c4F)n3)cc2[nH]1` [I-A-52] came in with a Ki of no more than 100 nM. `Nc1ncc(-c2cccc3c2OCO3)cc1-c1nnnn1-c1cccc(F)c1F` [I-A-305] yielded a Ki of no more than 100 nM.

As usually defined, the Ki is a dissociation constant, usually derived from enzyme kinetics or from competition with a known ligand.
